Broadly, the Ki is the dissociation constant of the complex between target and ligand, obtained from inhibition or displacement. Read a high Ki as lower affinity. What is called melting point is the temperature, or range, at which the solid turns liquid.

The target in data set [1] is T1, rat mGlu2 receptor (Rattus norvegicus, UniProt P31421).
T1 construct: expressed in transfected cells; membranes prepared
As to the kind of experiment: [3H]-LY354740 binding on mGlu2 transfected CHO cell membranes. Conditions: 10 nM [3H]-LY354740, membranes of CHO cells transfected with rat mGlu2, room temperature, 1 hour. From the text: [^3H]-LY354740 Binding on mGlu2 Transfected CHO Cell Membranes. Transfection and Cell Culture
cDNA encoding the rat mGlu2 receptor protein in pBluescript II was subcloned into the eukaryotic expression vector pcDNA I-amp from Invitrogen Ltd (Paisley, UK). This vector construct (pcD1mGR2) was co-transfected with a psvNeo plasmid encoding the gene for neomycin resistance, into CHO cells by a modified calcium phosphate method described by Chen & Okayama (1988). The cells were maintained in Dulbecco's Modified Eagle medium with reduced L-glutamine (2 mM final concentration) and 10% dialysed foetal calf serum from Gibco-Invitrogen (Carlsbad, Calif., USA). Selection was made in the presence of G-418 (1000 ug/ml final) and […]. Clones were identified by reverse transcription of 5 μg total RNA, followed by PCR mGlu2 receptor specific primers 5′-[…]-3′ and 5′-[…]-3′in 60 mM Tris HCl (pH 10), 15 mM (NH4)2SO4, 2 mM MgCl2, 25 units/ml Taq Polymerase with 30 cycles annealing at 60° C. for 1 min., extention at 72° C. for 30 s, and 1 min. 95° C. denaturation.
Cells, cultured as above, were harvested and washed three times with cold PBS and frozen at −80° C. The pellet was resuspended in cold 20 mM HEPES-NaOH buffer containing 10 mM EDTA (pH 7.4), and homogenised with a polytron (Kinematica, AG, Littau, Switzerland) for 10 s at 10 000 rpm. After centrifugation for 30 min. at 4° C., the pellet was washed once with the same buffer, and once with cold 20 mM HEPES-NaOH buffer containing 0.1 mM EDTA, (pH 7.4). Protein content was measured using the micro BCA method from Pierce-Perbio (Rockford, Ill., USA) using bovine serum albumin as standard.
After thawing, the membranes were resuspended in cold 50 mM Tris-HCl buffer containing 2 mM MgCl2 (pH 7) (binding buffer). The final concentration of the membranes in the assays was 25 μg protein/ml. Inhibition experiments were performed with membranes incubated with 10 nM [^3H]-LY354740 at room temperature, for 1 hour, in presence of various concentrations of the compound to be tested. Following the incubations, membranes were filtered onto Whatmann GF/B glass fiber filters and washed 5 times with cold binding buffer. Non specific binding was measured in the presence of 10 μM DCG IV. After transfer of the filters into plastic vials containing 10 ml of Ultima-gold scintillation fluid from Perkin-Elmer(Boston, Mass., USA), the radioactivity was measured by liquid scintillation in a Tri-Carb 2500 TR counter (Packard, Zürich, Switzerland).
The inhibition curves were fitted with a four parameter logistic equation giving IC50 values, and Hill coefficients.

T1 sequence (P31421 19-872): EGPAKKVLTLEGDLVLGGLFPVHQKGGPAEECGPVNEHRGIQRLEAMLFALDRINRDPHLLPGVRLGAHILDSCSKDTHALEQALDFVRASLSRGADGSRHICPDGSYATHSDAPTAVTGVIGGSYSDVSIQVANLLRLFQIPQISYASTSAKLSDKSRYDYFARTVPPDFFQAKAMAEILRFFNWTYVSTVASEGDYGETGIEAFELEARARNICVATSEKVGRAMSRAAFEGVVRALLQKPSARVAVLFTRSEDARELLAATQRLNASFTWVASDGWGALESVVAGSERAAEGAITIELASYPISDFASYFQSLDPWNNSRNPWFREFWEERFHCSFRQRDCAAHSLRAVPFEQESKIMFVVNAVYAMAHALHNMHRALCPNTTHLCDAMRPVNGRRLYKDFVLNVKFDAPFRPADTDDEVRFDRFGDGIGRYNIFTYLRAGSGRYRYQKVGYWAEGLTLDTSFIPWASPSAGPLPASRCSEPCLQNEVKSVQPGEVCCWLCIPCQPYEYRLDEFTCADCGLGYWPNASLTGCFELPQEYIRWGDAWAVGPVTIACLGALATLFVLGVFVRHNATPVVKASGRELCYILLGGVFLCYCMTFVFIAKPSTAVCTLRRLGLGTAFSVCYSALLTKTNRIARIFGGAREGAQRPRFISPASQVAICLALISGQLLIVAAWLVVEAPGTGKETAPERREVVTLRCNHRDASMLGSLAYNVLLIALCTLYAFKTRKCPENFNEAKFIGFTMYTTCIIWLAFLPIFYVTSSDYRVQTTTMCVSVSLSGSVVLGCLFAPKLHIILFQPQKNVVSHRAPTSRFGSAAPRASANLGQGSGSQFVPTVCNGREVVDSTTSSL

`NS(=O)(=O)c1cc(NC(=O)c2cnn3c(C(F)(F)F)cc(-c4ccc(C(F)(F)F)cc4)nc23)c(Cl)s1` [Example 2, 7-Trifluoromethyl-5-(4-trifluoromethyl-phenyl)-pyrazolo[1,5-a]pyrimidine-3-carboxylic acid (2-chloro-5-sulfamoyl-thiophen-3-yl)-amide] showed a melting point of 275 °C. In data set [1], this compound showed a Ki of 6.9 nM.

The compound `NS(=O)(=O)c1nnc(NC(=O)c2cnn3c(C(F)F)cc(-c4ccc(C(F)(F)F)cc4)nc23)s1` [Example 3, 7-Difluoromethyl-5-(4-trifluoromethyl-phenyl)-pyrazolo[1,5-a]pyrimidine-3-carboxylic acid (5-sulfamoyl-[1,3,4]thiadiazol-2-yl)-amide] came in with a melting point of 284 °C. This compound also showed a Ki in data set [1] of 142 nM.

`Cc1nc(NC(=O)c2cnn3c(C(F)(F)F)cc(-c4ccc(C(F)(F)F)cc4)nc23)sc1S(N)(=O)=O` [Example 8, 7-Trifluoromethyl-5-(4-trifluoromethyl-phenyl)-pyrazolo[1,5-a]pyrimidine-3-carboxylic acid (4-methyl-5-sulfamoyl-thiazol-2-yl)-amide]: the melting point amounted to 303 °C. For the same compound, the Ki in data set [1] stood at 2.5 nM.

`O=C(Nc1cc(S(=O)(=O)N(CCO)CCO)sc1Cl)c1cnn2c(C(F)(F)F)cc(-c3ccc(C(F)(F)F)cc3)nc12` [Example 35, 7-Trifluoromethyl-5-(4-trifluoromethyl-phenyl)-pyrazolo[1,5-a]pyrimidine-3-carboxylic acid {5-[bis-(2-hydroxy-ethyl)-sulfamoyl]-2-chloro-thiophen-3-yl}-amide]: the melting point was 217 °C. In data set [1], this compound yielded a Ki of 27 nM.

Source of the values: patent US7361659B2, “Pyrrazolo-pyrimidine derivatives” (Hoffmann-La Roche Inc., priority 2005, dated 2008).
